HELM strings list units from the 5' end as sugar, base in round brackets, then linkage (d deoxyribose, r ribose, m 2'-O-methyl, p phosphodiester). Strings are as the collection lists them; they lack the last nucleoside at the 3' end of the tested compound. [moe] = 2'-O-(2-methoxyethyl) (MOE); [sp] = phosphorothioate linkage; [m5C] = 5-methylcytosine

The series addresses ATXN2. Description: mouse, dose not given. To be noted: ASO.
“RNA1{[moe](A)[sp].[moe](G)p.[moe](T)p.[moe]([m5C])p.[moe](T)p.d(T)[sp].d(G)[sp].d(T)[sp].d(T)[sp].d([m5C])[sp].d(A)[sp].d(G)[sp].d(T)[sp].d(G)[sp].d(T)[sp].[moe]([m5C])p.[moe]([m5C])p.[moe](T)[sp].[moe](T)}$$$$ (last 3' nucleoside missing)” gave a 3 h FOB score of 5 score 0-7. On to “RNA1{[moe](A)[sp].[moe](G)p.[moe]([m5C])p.[moe](A)p.[moe](T)p.d(G)[sp].d(A)[sp].d(T)[sp].d([m5C])[sp].d(T)[sp].d(T)[sp].d(G)[sp].d(T)[sp].d(G)[sp].d(T)[sp].[moe](A)p.[moe](T)p.[moe](A)[sp].[moe](T)}$$$$ (last 3' nucleoside missing)”, for which the 3 h FOB score was found to be 3 score 0-7. Regarding “RNA1{[moe](A)[sp].[moe](G)p.[moe]([m5C])p.[moe](A)p.[moe](T)p.d([m5C])[sp].d(A)[sp].d(T)[sp].d(T)[sp].d(G)[sp].d(G)[sp].d([m5C])[sp].d(G)[sp].d([m5C])[sp].d(A)[sp].[moe](T)p.[moe](G)p.[moe](G)[sp].[moe](G)}$$$$ (last 3' nucleoside missing)”, the 3 h FOB score was determined as 5 score 0-7.

“RNA1{[moe](A)[sp].[moe](G)p.[moe]([m5C])p.[moe](A)p.[moe]([m5C])p.d(A)[sp].d(T)[sp].d(G)[sp].d(A)[sp].d(T)[sp].d(T)[sp].d(G)[sp].d(T)[sp].d(A)[sp].d(A)[sp].[moe](A)p.[moe]([m5C])p.[moe](T)[sp].[moe](A)}$$$$ (last 3' nucleoside missing)” registered a 3 h FOB score of 6 score 0-7.

On to “RNA1{[moe](A)[sp].[moe](G)p.[moe]([m5C])p.[moe](T)p.[moe](T)p.[moe](A)p.d(G)[sp].d(A)[sp].d(G)[sp].d(T)[sp].d(T)[sp].d(T)[sp].d(T)[sp].d(T)[sp].d(G)[sp].d([m5C])[sp].[moe]([m5C])p.[moe](T)[sp].[moe](T)}$$$$ (last 3' nucleoside missing)”, for which the 3 h FOB score was 5 score 0-7. In turn, “RNA1{[moe](A)[sp].[moe](G)p.[moe]([m5C])p.[moe](T)p.[moe](T)p.d(A)[sp].d(G)[sp].d(A)[sp].d(G)[sp].d(T)[sp].d(T)[sp].d(T)[sp].d(T)[sp].d(T)[sp].d(G)[sp].[moe]([m5C])p.[moe]([m5C])p.[moe](T)[sp].[moe](T)}$$$$ (last 3' nucleoside missing)” returned a 3 h FOB score of 5 score 0-7. In the case of “RNA1{[moe](A)[sp].[moe](G)p.[moe]([m5C])p.[moe](T)p.[moe]([m5C])p.d(A)[sp].d(T)[sp].d([m5C])[sp].d(A)[sp].d(A)[sp].d(G)[sp].d(G)[sp].d(T)[sp].d(A)[sp].d([m5C])[sp].[moe]([m5C])p.[moe](A)p.[moe](G)[sp].[moe](T)}$$$$ (last 3' nucleoside missing)”, the 3 h FOB score was 4 score 0-7. In turn, “RNA1{[moe](A)[sp].[moe](G)p.[moe]([m5C])p.[moe](T)p.[moe]([m5C])p.d(T)[sp].d(G)[sp].d(T)[sp].d(T)[sp].d([m5C])[sp].d(G)[sp].d(A)[sp].d(T)[sp].d(G)[sp].d([m5C])[sp].[moe](A)p.[moe](G)p.[moe](G)[sp].[moe](A)}$$$$ (last 3' nucleoside missing)” returned a 3 h FOB score of 4 score 0-7. In the case of “RNA1{[moe](A)[sp].[moe](G)p.[moe]([m5C])p.[moe](T)p.d(T)[sp].d(A)[sp].d(G)[sp].d(A)[sp].d(G)[sp].d(T)[sp].d(T)[sp].d(T)[sp].d(T)[sp].d(T)[sp].[moe](G)p.[moe]([m5C])p.[moe]([m5C])p.[moe](T)[sp].[moe](T)}$$$$ (last 3' nucleoside missing)”, the 3 h FOB score stood at 4 score 0-7. The value for “RNA1{[moe](A)[sp].[moe](T)p.[moe](A)p.[moe](A)p.[moe](A)p.d([m5C])[sp].d(T)[sp].d(G)[sp].d(T)[sp].d(T)[sp].d(T)[sp].d(A)[sp].d([m5C])[sp].d(A)[sp].d(T)[sp].[moe]([m5C])p.[moe](T)p.[moe]([m5C])[sp].[moe]([m5C])}$$$$ (last 3' nucleoside missing)” was 4 score 0-7; that for “RNA1{[moe](A)[sp].[moe](T)p.[moe](A)p.[moe]([m5C])p.[moe](G)p.d([m5C])[sp].d(G)[sp].d(G)[sp].d(T)[sp].d(G)[sp].d(A)[sp].d(A)[sp].d(T)[sp].d(T)[sp].d([m5C])[sp].[moe](T)p.[moe](G)p.[moe](T)[sp].[moe]([m5C])}$$$$ (last 3' nucleoside missing)” was 1 score 0-7. The value for “RNA1{[moe](A)[sp].[moe](T)p.[moe](A)p.[moe]([m5C])p.[moe](T)p.d([m5C])[sp].d(T)[sp].d([m5C])[sp].d([m5C])[sp].d(A)[sp].d(T)[sp].d(T)[sp].d(A)[sp].d(T)[sp].d(T)[sp].[moe](T)p.[moe]([m5C])p.[moe](T)[sp].[moe](T)}$$$$ (last 3' nucleoside missing)” was 0 score 0-7; that for “RNA1{[moe](A)[sp].[moe](T)p.[moe](G)p.[moe](A)p.[moe](T)p.d([m5C])[sp].d(T)[sp].d(T)[sp].d(G)[sp].d(T)[sp].d(G)[sp].d(T)[sp].d(A)[sp].d(T)[sp].d(A)[sp].[moe](T)p.[moe](A)p.[moe](T)[sp].[moe](T)}$$$$ (last 3' nucleoside missing)” was 6 score 0-7; that for “RNA1{[moe](A)[sp].[moe](T)p.[moe](G)p.[moe](T)p.[moe](A)p.d(G)[sp].d(T)[sp].d(T)[sp].d(A)[sp].d([m5C])[sp].d(A)[sp].d(T)[sp].d(G)[sp].d(T)[sp].d(A)[sp].[moe](A)p.[moe]([m5C])p.[moe]([m5C])[sp].[moe](A)}$$$$ (last 3' nucleoside missing)” was 2 score 0-7. Turning to “RNA1{[moe](A)[sp].[moe](T)p.[moe](G)p.[moe]([m5C])p.[moe](A)p.d(A)[sp].d([m5C])[sp].d(T)[sp].d(T)[sp].d(A)[sp].d(A)[sp].d(T)[sp].d(A)[sp].d(A)[sp].d([m5C])[sp].[moe]([m5C])p.[moe](T)p.[moe](T)[sp].[moe](A)}$$$$ (last 3' nucleoside missing)”, the 3 h FOB score was found to be 0.25 score 0-7. On to “RNA1{[moe](A)[sp].[moe](T)p.[moe](G)p.[moe]([m5C])p.[moe](A)p.d(G)[sp].d(T)[sp].d(A)[sp].d([m5C])[sp].d(A)[sp].d(A)[sp].d([m5C])[sp].d(A)[sp].d(T)[sp].d(T)[sp].[moe]([m5C])p.[moe]([m5C])p.[moe](A)[sp].[moe](T)}$$$$ (last 3' nucleoside missing)”, for which the 3 h FOB score turned out to be 0 score 0-7. The value for “RNA1{[moe](A)[sp].[moe](T)p.[moe](G)p.[moe]([m5C])p.[moe](A)p.d([m5C])[sp].d(T)[sp].d(G)[sp].d([m5C])[sp].d(T)[sp].d(T)[sp].d(G)[sp].d([m5C])[sp].d([m5C])[sp].d(T)[sp].[moe](G)p.[moe](G)p.[moe](A)[sp].[moe](G)}$$$$ (last 3' nucleoside missing)” was 5 score 0-7.

For the substance “RNA1{[moe](A)[sp].[moe](T)p.[moe](G)p.[moe]([m5C])p.[moe](T)p.d(G)[sp].d(G)[sp].d(T)[sp].d(T)[sp].d([m5C])[sp].d([m5C])[sp].d(T)[sp].d(T)[sp].d(A)[sp].d([m5C])[sp].[moe](A)p.[moe](A)p.[moe](T)[sp].[moe](T)}$$$$ (last 3' nucleoside missing)”, the 3 h FOB score was determined as 0 score 0-7. The substance “RNA1{[moe](A)[sp].[moe](T)p.[moe](T)p.[moe](T)p.[moe](T)p.d(G)[sp].d(A)[sp].d(A)[sp].d(T)[sp].d(T)[sp].d(A)[sp].d([m5C])[sp].d(A)[sp].d(A)[sp].d(T)[sp].[moe](G)p.[moe]([m5C])p.[moe](G)[sp].[moe](G)}$$$$ (last 3' nucleoside missing)” registered a 3 h FOB score of 0 score 0-7. For “RNA1{[moe](A)[sp].[moe](T)p.[moe](T)p.[moe]([m5C])p.[moe](T)[sp].d(G)[sp].d(T)[sp].d(A)[sp].d([m5C])[sp].d(T)[sp].d(T)[sp].d(T)[sp].d(T)[sp].[moe]([m5C])p.[moe](T)p.[moe]([m5C])[sp].[moe](A)}$$$$ (last 3' nucleoside missing)”, the 3 h FOB score was determined as 0 score 0-7. The value for “RNA1{[moe](A)[sp].[moe](T)p.[moe](T)p.[moe]([m5C])p.[moe](T)p.d(G)[sp].d(T)[sp].d(A)[sp].d([m5C])[sp].d(T)[sp].d(T)[sp].d(T)[sp].d(T)[sp].d([m5C])[sp].d(T)[sp].[moe]([m5C])p.[moe](A)p.[moe](T)[sp].[moe](G)}$$$$ (last 3' nucleoside missing)” was 1 score 0-7; that for “RNA1{[moe](A)[sp].[moe](T)p.[moe]([m5C])p.[moe](A)p.[moe](A)p.d([m5C])[sp].d(T)[sp].d([m5C])[sp].d([m5C])[sp].d(A)[sp].d(A)[sp].d(A)[sp].d(G)[sp].d(G)[sp].d(T)[sp].[moe](A)p.[moe](G)p.[moe]([m5C])[sp].[moe](A)}$$$$ (last 3' nucleoside missing)” was 6 score 0-7. The substance “RNA1{[moe](A)[sp].[moe](T)p.[moe]([m5C])p.[moe](A)p.[moe](G)p.d(T)[sp].d(A)[sp].d(T)[sp].d(T)[sp].d(T)[sp].d(A)[sp].d([m5C])[sp].d(T)[sp].d(A)[sp].d([m5C])[sp].[moe](T)p.[moe](T)p.[moe]([m5C])[sp].[moe](T)}$$$$ (last 3' nucleoside missing)” displayed a 3 h FOB score of 2.75 score 0-7.

Turning to “RNA1{[moe](A)[sp].[moe](T)p.[moe]([m5C])p.[moe](A)p.[moe](G)p.d(T)[sp].d(T)[sp].d(T)[sp].d(G)[sp].d(T)[sp].d(A)[sp].d(T)[sp].d(G)[sp].d(A)[sp].d([m5C])[sp].[moe]([m5C])p.[moe](A)p.[moe](T)[sp].[moe](A)}$$$$ (last 3' nucleoside missing)”, the 3 h FOB score was 3 score 0-7. Regarding “RNA1{[moe](A)[sp].[moe](T)p.[moe]([m5C])p.[moe](A)p.[moe](T)[sp].d([m5C])[sp].d(A)[sp].d(T)[sp].d(T)[sp].d(T)[sp].d(T)[sp].d([m5C])[sp].d([m5C])[sp].[moe](A)p.[moe](G)p.[moe](G)[sp].[moe](G)}$$$$ (last 3' nucleoside missing)”, the 3 h FOB score came to 4.5 score 0-7. For the substance “RNA1{[moe](A)[sp].[moe](T)p.[moe]([m5C])p.[moe](T)p.[moe](A)p.d(T)[sp].d(G)[sp].d(A)[sp].d(T)[sp].d(T)[sp].d(T)[sp].d(T)[sp].d([m5C])[sp].d(A)[sp].d(T)[sp].[moe]([m5C])p.[moe](A)p.[moe](G)[sp].[moe](G)}$$$$ (last 3' nucleoside missing)”, the 3 h FOB score amounted to 0 score 0-7.

The record behind these values is the OligoGym collection.
